Assay results taken from patent US5605700A (priority 1992, dated 1997).
pIC50: −log10 of the molar value. Entries after “also recorded” stand apart in the source; their conditions may differ. Values belong to the molecule of their own block, whether it stands above or below them.

Columns and labels:
[1] = Tissue distribution of toremifene and metabolites after 5 days IP vs. topical toremifene (HPLC), mice with MDA A-1 tumors; details: for concentration at 2 h: mouse
Procedure: Sixteen female athymic nude mice were injected with a 20-gauge needle subcutaneously with 5×10^6 MDA A-1 cells in the left scapular area. The tumors were allowed to grow for three weeks prior to treatment.
Each of the three mice were injected IP using an 18 gauge needle with 50 μl, delivering 1 mg/day for five days. […] All mice were sacrificed on the fifth day of treatment two hours after the final dose. Blood specimens were collected by capillary pipette after disruption of axillary vessels and placed into heparinized centrifuge tubes. The brains, livers, and uterus were removed surgically and placed in separate tubes.
All blood samples were centrifuged at 1,000 g. The plasma was collected, measured for volume, and placed in clean extraction tubes. All remaining tissue samples were weighed, placed in extraction tubes, and spiked with an internal standard, nafoxidine. The tissues were thoroughly homogenized before the addition of 6 ml extraction fluid. Samples were collected and dried as described below. Before injection onto the HPLC column, each sample was reconstituted with 200 μl methanol. All samples were placed in a quartz cuvette for UV activation. The brain samples required filtration with disposable syringe filters.

[2] = tested on: estrogen receptors (ER's); details: cited from earlier work
MCF-7 cells = assay: Prevention of breast cancer (MCF-7) tumor growth by topical administration in the mouse; format: in vivo; details: topical 500 μg, 15 days
Procedure: In this study 12 mice were transplanted with MCF-7 cells and were allowed to grow until a small tumor was detected in all mice (<1 mm^3). At that time mice were divided into three groups of four mice each. […] All mice received the same amount of diluent/day (20 μl ). The study was assessed following 15 days of treatment.

MDR-positive cells = details: cited from earlier work; for multidrug resistance reversal / chemosensitizing activity: in vitro
[3] = cited from earlier work; for concentration: following large oral doses, read-out: plasma concentration
MDR MDA A-1 tumors = assay: Doxorubicin cytotoxicity enhancement in MDR tumors; clonogenic assay of tumors excised from treated mice; format: in vivo, mouse; details: for percent inhibition (clonogenic assay): all three tumors, doxorubicin 1 μg/ml 1 hour, 14 days
Procedure: Drug was applied dropwise to the skin surface directly and around the tumor. Each drop was allowed to evaporate completely. This treatment was administered once a day at the same time for a total of five days. […] Tumors were collected sterilely and processed for clonogenic assay.
The remaining portion was cloned following a 1 hour exposure to doxorubicin 1 μg/ml.

[4] = tested on: estrogen receptor (ER) positive metastatic breast cancer; details: cited from earlier work
TD 30 A = assay: Cytostatic effect in melanoma cell line TD 30 A; format: cell-based; details: human cell line TD 30 A; read-out: IC-50 (50% growth inhibitory concentration)
TD 8 = assay: Cytostatic effect in experimental cell line TD 8; format: cell-based; details: Monodelphis domestica, read-out: IC-50 (50% growth inhibitory concentration)
Excerpt: (§1) The metastatic melanoma cell line, SK-MEL-31, was obtained from the American Type Culture Collection (Rockville, Md.). Two additional human cell lines were derived from portions of surgigally-excised large diameter, superficial spreading melanomas. TD 1.4 was developed from a benign melanoma, whereas TD 7.2 and TD 8 were derived from melanocytic hyperplasias.

[5] = Tissue distribution of toremifene after single dose (500 μg) IP vs. topical; format: in vivo; details: mouse, 0.5 mg
Procedure: Single dose toremifene was administered by IP as described above, or topically with DMSO/ETOH/methylcellulose/water as the diluents. […] Tissue samples were collected as above.
All blood samples were centrifuged at 1,000 g. […] Samples were collected and dried as described below. […] The brain samples required filtration with disposable syringe filters.
DMSO and methylcellulose were used as the diluents. […] This was trend noted in both serum and uterus.

[6] = tested on: spontaneous non-Hodgkin's lymphoma; assay: Treatment of spontaneous non-Hodgkin's lymphoma in a baboon; format: in vivo
Procedure: Enlarged lymph nodes with diameters of 1-2 cm were evident in the both groins. Toremifene was dissolved in a. mixture of dimethylsulfoxide, ethanol and methylcellulose. […] On day 25 following start of treatment, topical therapy of right groin was re-instituted while continuing the oral treatment. […] The response to therapy was determined by measuring the sizes of the tumors on two perpendicular dimensions.

[7] = tested on: six cell lines of melanocyte origin; assay: Cytostatic effect in all six cell lines of melanocyte origin; format: cell-based, human and Monodelphis domestica
Excerpt: as §1

TD 36 = assay: Cytostatic effect in melanoma cell line TD 36; format: cell-based; details: human cell line TD 36; read-out: IC-50 (50% growth inhibitory concentration)
SD-MEL-31 = assay: Cytostatic effect in metastatic melanoma cell line SD-MEL-31 (text: SK-MEL-31); format: cell-based; details: human cell line SD-MEL-31; read-out: IC-50 (50% growth inhibitory concentration)
Excerpt: as §1

TD 1.4 = assay: Cytostatic effect in experimental cell line TD 1.4; format: cell-based; details: Monodelphis domestica, read-out: IC-50 (50% growth inhibitory concentration)
Excerpt: as §1

[8] = Plasma and tissue concentration of toremifene after topical administration in Monodelphis domestica; format: in vivo
Procedure: The dose was 0.5 mg/d in 3 and 1 mg/d in 3 animals.

TD 7.2 = assay: Cytostatic effect in experimental cell line TD 7.2; format: cell-based; details: Monodelphis domestica, read-out: IC-50 (50% growth inhibitory concentration)
Excerpt: as §1

[9] = brain, topical or ocular, 2.5 mg/day
[10] = liver, topical or ocular, 2.5 mg
[11] = serum, topical or ocular, 2.5 mg
[12] = tumor, topical or ocular, 2.5 mg
[13] = uterus, topical or ocular, 2.5 mg
[14] = oral 1 g on days 15, 17, 19 and 23
[15] = right inguinal lymphoma, topical re-instituted while continuing oral

Topical/IP brain concentration ratio ([1]; brain, topical 2.5 mg/day vs IP 1 mg/day, 5 days, listed as Trans 4-hydroxytoremifene): 1.00
Topical/IP brain concentration ratio ([1]; brain, topical 2.5 mg/day vs IP 1 mg/day, 5 days, listed as trans 4-hydroxytoremifene): identical
Topical/IP liver concentration ratio ([1]; liver, topical 2.5 mg/day vs IP 1 mg/day, 5 days): 1.63
concentration at 2 h ([1]; brain, ip, 1 mg/day): 350 ng/g
concentration at 2 h [1, 9]: 350 ng/g
concentration at 2 h ([1]; liver, ip, 1 mg): 600 ng/g
concentration at 2 h [1, 10]: 980 ng/g
concentration at 2 h ([1]; serum, ip, 1 mg): 0.16 µg/mL
concentration at 2 h [1, 11]: 0.1 µg/mL
concentration at 2 h ([1]; tumor, ip, 1 mg): 880 ng/g
concentration at 2 h [1, 12]: 2330 ng/g
concentration at 2 h ([1]; uterus, ip, 1 mg): 830 ng/g
concentration at 2 h [1, 13]: 700 ng/g
Topical/IP serum concentration ratio ([1]; serum, topical 2.5 mg/day vs IP 1 mg/day, 5 days, listed as Trans 4-hydroxytoremifene): 0.63
Topical/IP serum concentration ratio ([1]; serum, topical 2.5 mg/day vs IP 1 mg/day, 5 days, listed as trans 4-hydroxytoremifene): lower
Topical/IP tumor concentration ratio ([1]; tumor, topical 2.5 mg/day vs IP 1 mg/day, 5 days, listed as Trans 4-hydroxytoremifene): 2.65
Topical/IP tumor concentration ratio ([1]; tumor, topical 2.5 mg/day vs IP 1 mg/day, 5 days, listed as trans 4-hydroxytoremifene): greater concentrations
Topical/IP uterus concentration ratio ([1]; uterus, topical 2.5 mg/day vs IP 1 mg/day, 5 days): 0.84
Compound: CN(C)CCOc1ccc(/C(=C(/CCCl)c2ccccc2)c2ccc(O)cc2)cc1 [4-hydroxytoremifene, 4-chloro-1-(4-hydroxyphenyl)-2-phenyl-1-[4-[2-(N, N-dimethylamino)ethoyoxy]phenyl]-1-butene]
antiestrogenic potency among metabolites [2]: most potent antiestrogenic metabolite
effect on tumor growth (MCF-7 cells): prevented tumor growth
mice that developed a tumor (MCF-7 cells; four mice per group, all four control mice had tumors >6×8 mms): only one mouse
multidrug resistance reversal / chemosensitizing activity (MDR-positive cells): have chemosensitizing activity in MDR-positive cells

concentration at 2 h ([1]; brain, ip, 1 mg/day): 490 ng/g
concentration at 2 h [1, 9]: 290 ng/g
concentration at 2 h ([1]; liver, ip, 1 mg): 940 ng/g
concentration at 2 h [1, 10]: 920 ng/g
concentration at 2 h ([1]; serum, ip, 1 mg): 0.18 µg/mL
concentration at 2 h [1, 11]: 0.08 µg/mL
concentration at 2 h ([1]; tumor, ip, 1 mg): 1270 ng/g
concentration at 2 h [1, 12]: 8430 ng/g
concentration at 2 h ([1]; uterus, ip, 1 mg): 1180 ng/g
concentration at 2 h [1, 13]: 560 ng/g
Compound: CNCCOc1ccc(C(=C(CCCl)c2ccccc2)c2ccccc2)cc1 [N-demethyltoremifene, 4-chloro-1,2-diphenyl-[4-[2-(N-methylamino)ethoxy-]phenyl]-1-butene]
concentration [3]: ~10 µM
multidrug resistance reversal / chemosensitizing activity (MDR-positive cells): have chemosensitizing activity in MDR-positive cells

Compound: COc1cccc2c1C(=O)c1c(O)c3c(c(O)c1C2=O)C[C@@](O)(C(=O)CO)C[C@@H]3O[C@H]1C[C@H](N)[C@H](O)[C@H](C)O1 [doxorubicin]
sensitivity of tumor to doxorubicin without toremifene (MDR MDA A-1 tumors; mouse not treated with toremifene (FIG. 2)): resistant

Compound: CC/C(=C(\c1ccccc1)c1ccc(OCCN(C)C)cc1)c1ccccc1 [tamoxifen]
fraction of patients with temporary remission ([4]; ER positive metastatic breast cancer): About two-thirds
endometrial toxicity ([4]; adjuvant therapy, women): increased risk of developing endometrial neoplasms; also recorded: endometrial dysplasia, bleeding, polyp formation and tumors
estrogen receptor antagonism ([2]; inhibition of estrogen-induced growth): competitive antagonism of tumor estrogen receptors

Compound: CN(C)CCOc1ccc(/C(=C(/CCCl)c2ccccc2)c2ccccc2)cc1 [toremifene]
pIC50 (TD 30 A): 5.11
pIC50 (TD 8): 5.11
concentration at 2 h ([5]; serum, ip, Serum toremifene concentration): 0.09 µg/mL
concentration at 2 h ([5]; serum, topical or ocular, Serum toremifene concentration, topical in DMSO): 0.03 µg/mL
concentration at 2 h ([5]; serum, topical or ocular, Serum toremifene concentration, topical in methylcellulose (MC)): 0.02 µg/mL
concentration at 2 h ([5]; tumor, ip, Tumor toremifene concentration): 2570 ng/g
concentration at 2 h ([5]; tumor, topical or ocular, Tumor toremifene concentration, topical in DMSO): 4650 ng/g
concentration at 2 h ([5]; tumor, topical or ocular, Tumor toremifene concentration, topical in methylcellulose (MC)): 1800 ng/g
concentration at 2 h ([5]; uterus, ip, Uterus toremifene concentration): 23600 ng/g
concentration at 2 h ([5]; uterus, topical or ocular, Uterus toremifene concentration, topical in DMSO): 920 ng/g
concentration at 2 h ([5]; uterus, topical or ocular, Uterus toremifene concentration, topical in methylcellulose (MC)): 1100 ng/g
left inguinal lymphoma during oral therapy [6, 14]: stabilized
right inguinal lymphoma during oral therapy [6, 14]: begun to regrow
response of lymphoma to topical toremifene ([6]; right inguinal lymphoma, 1.4 g topical over 8 days): clear response
tumor area after reinstituted topical therapy [6, 15]: 24 mm^2
tumor area before reinstituted topical therapy [6, 15]: 476 mm^2
in vivo antitumor response ([6]; topical, regional T-cell lymphoma): can produce an in vivo antitumor response
concentration [3]: ~10 µM
systemic toxicity ([3]; high-dose toremifene (400 mg/day)): generally confined to vertigo, nausea and hot flashes
pIC50 ([7]; Melanocyte, all six cell lines, read-out: range of IC-50s): 5.02 to 5.24
cytostatic effect ([7]; human and experimental melanomatous cell lines in vitro): clear cytostatic effect
pIC50 (TD 36): 5.24
pIC50 (SD-MEL-31): 5.09
pIC50 (TD 1.4): 5.03
mean concentration of toremifene in brain ([8]; topical 0.5 mg/day for 5 days): 0.82 ± 0.99 nmol/g
mean concentration of toremifene in skin ([8]; topical 0.5 mg/day for 5 days): 1296.40 ± 1003.93 nmol/g
mean concentration of toremifene in brain ([8]; topical 1 mg/day for 5 days): 0.82 ± 0.62 nmol/g
mean concentration of toremifene in skin ([8]; topical 1 mg/day for 5 days): 1237.35 ± 768.90 nmol/g
Toremifene concentration in skin as compared to other tissues ([8]; topical 0.5 and 1 mg/day for 5 days): more than 500 fold
effect on tumor growth (MCF-7 cells): prevented tumor growth
percent inhibition (clonogenic assay) (MDR MDA A-1 tumors; intraperitoneal toremifene): < 30%
percent inhibition (clonogenic assay) (MDR MDA A-1 tumors; topical toremifene): > 30%
sensitization of tumors to doxorubicin (MDR MDA A-1 tumors; topical toremifene, cloning studies (FIG. 2)): appears to sensitize these MDR MDA A-1 tumors to doxorubicin
concentration that reverses resistance in vitro (MDR-positive cells; achievable in vivo following oral therapy): 5 µM
multidrug resistance reversal / chemosensitizing activity (MDR-positive cells): have chemosensitizing activity in MDR-positive cells
pIC50 (TD 7.2): 5.02

Compound: COc1ccc(CCN(C)CCCC(C#N)(c2ccc(OC)c(OC)c2)C(C)C)cc1OC (stereo not drawn) [verapamil]
multidrug resistance reversal / chemosensitizing activity (MDR-positive cells): shown to reverse multidrug resistance in vitro
